For assay [1], the system named is PfROM4. The class given is cell-based, P. falciparum. The following applies: transfected HEK293T cells.
Assay [2] deals with PfROM4. Put plainly: Merozoite adhesin shedding assay: EBA175 shedding by PfROM4. The format is cell-based, P. falciparum. The following applies: 10μM RiKa (p=0.0014) or 25mM EGTA, 90 min at 37°C.

In the case of “Ac-KRFRSMQYSA-CHO (Ac-KRFRSMQYSA-aldehyde; SMILES CSCC[C@H](NC(=O)[C@H](CO)NC(=O)[C@H](CCCNC(=N)N)NC(=O)[C@H](Cc1ccccc1)NC(=O)[C@H](CCCNC(=N)N)NC(=O)[C@H](CCCCN)NC(C)=O)C(=O)N[C@@H](CCC(N)=O)C(=O)N[C@@H](Cc1ccc(O)cc1)C(=O)N[C@@H](CO)C(=O)N[C@@H](C)C=O)”, the “inhibition of EBA175 processing by PfROM4” value in assay [1] is “abrogated PfROM4 inhibition”.

`O=C(O)CN(CCOCCOCCN(CC(=O)O)CC(=O)O)CC(=O)O` [EGTA]: the “shedding of EBA175 by PfROM4 from free merozoites” value in assay [2] is on record as “did not inhibit”.

(Values after article PMC7680425 (Cell chemical biology, 2020).)
